The source of these data is ChEMBL document CHEMBL1201862, “PubChem BioAssay data set” (2004).

Test [1] is described as follows: NIH3T3 cell viability loss – ATP luminescence, mouse fibroblasts, counter-screen, dose response (AID 2010).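 Further: cells exposed to compound for about 90 hours before reading.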 In kind it is functional, cell-based.
The nature of test [2]: Trypanosoma cruzi growth suppression in host cells – NIH3T3 host cells, beta-gal luminescence, confirmation (AID 2044).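 Further: intracellular parasites grown in NIH/3T3 mouse fibroblasts as host cells; luminescent beta-galactosidase reporter signal from transgenic T. cruzi replicating inside host cells; inhibitors lower the luminescence signal.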 Format: functional, cell-based.
A short description of another test: cells. In kind it is functional.
Test [3] in a line: Luminescence Cell-Based/Microorganism Confirmation at Dose of Inhibitors of Trypanosoma cruzi Infection. [Related pubchem assays: 1885, 1968 ]. Format: functional.
Test [4] can be described thus: T. cruzi infection blockers in NIH3T3 cells – beta-gal luminescence, NIH3T3 host cells, confirmation (AID 2630). In kind it is functional, cell-based. To be noted: Mus musculus.
Test [5] is described as follows: Luminescence Cell-Based Secondary HTS screen to identify cytotoxic compounds of NIH3T3 cells. [Related pubchem assays: 1885, 1968 ]. In kind it is functional.
Test [6] addresses T1, High affinity choline transporter 1 (Homo sapiens, UniProt Q9GZV3).
T1 sequence (Q9GZV3 whole entry): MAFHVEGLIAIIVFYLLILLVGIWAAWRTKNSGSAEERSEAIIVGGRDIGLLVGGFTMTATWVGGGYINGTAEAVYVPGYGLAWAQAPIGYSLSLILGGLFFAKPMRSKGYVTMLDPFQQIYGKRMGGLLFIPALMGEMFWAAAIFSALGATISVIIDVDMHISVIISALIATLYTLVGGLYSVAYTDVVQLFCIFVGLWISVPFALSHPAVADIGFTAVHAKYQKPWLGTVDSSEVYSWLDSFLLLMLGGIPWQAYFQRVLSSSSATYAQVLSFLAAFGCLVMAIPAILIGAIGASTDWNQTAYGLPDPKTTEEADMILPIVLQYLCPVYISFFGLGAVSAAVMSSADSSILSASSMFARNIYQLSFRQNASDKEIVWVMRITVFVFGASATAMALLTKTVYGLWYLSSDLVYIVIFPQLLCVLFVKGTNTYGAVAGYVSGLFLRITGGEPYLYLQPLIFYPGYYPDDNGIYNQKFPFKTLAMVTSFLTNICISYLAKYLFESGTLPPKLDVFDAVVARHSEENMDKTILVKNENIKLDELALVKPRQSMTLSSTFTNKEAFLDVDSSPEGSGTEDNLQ
Put plainly: human choline transporter blockers, potency – cell-based, 5-point CRC, membrane potential dye, dose response (AID 504840). In kind it is functional.

A short description of test [7]: HEK-293T viability loss after treatment – luminescence, T-cell screen hits, cytotoxicity control for TCR NF-kB inhibitor project, dose response (AID 489026).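 Further: cells exposed to compound about 14 hours before the viability readout.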 Format: functional, cell-based.
Test [8] concerns Streptococcus sp. 'group A'. Description: Streptococcus pyogenes SK(-)GAS viability under kanamycin – luminescence, BacTiterGlo, confirmation, counter-screen for streptokinase expression inhibitor project, dose response (AID 1900). Format: functional, organism-based.
The test system of a further test is Streptococcus. Put plainly: GAS UMAA2166 growth inhibition – luminescence, BacTiterGlo, counter-screen for streptokinase expression inhibitor project, dose response (AID 1915).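 Further: potency for reduction of bacterial viability or growth.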 In kind it is functional, organism-based.
In another test the test system is Escherichia coli. Description: microbe, parasite or virus in culture.

Calls of active or inactive are those of the source.

Consider `CC(C)(C)OC(=O)N/N=C\c1ccc([N+](=O)[O-])s1`, for which the EC50 in [1] was > 60 µM (not active); in test [2], 2.7 µM (active); in test [3], 2.46 µM (active); in [4] it was 2.46 µM (active); in [5], > 195 µM (not active). Moreover, the half-inhibitory concentration (IC50) in the test “cells” was 27.3 µM (active).
For the compound `Cc1ccc(C(=O)NC2CCCC(C)C2C)cc1S(=O)(=O)N1CCCCC1` (configuration not stated), the IC50 in [6] is 9.55 µM (active).
Take `CCO[C@H]1OC(C(=O)NCc2nc3ccccc3[nH]2)=C[C@@H](C2CC2)[C@@H]1CCCO`: the IC50 in test [7] is > 80 µM (inactive).
Regarding `COC(=O)N/N=C/c1cc(C)n(-c2ccccc2)c1C`, the IC50 in [6] is 11.5 µM (active).
Consider `CC[C@H]1OC(=O)[C@H](C)[C@@H](O[C@H]2C[C@@](C)(OC)[C@@H](O)[C@H](C)O2)[C@H](C)[C@@H](O[C@@H]2O[C@H](C)C[C@H](N(C)C)[C@H]2O)[C@](C)(O)C[C@@H](C)CN(C)[C@H](C)[C@@H](O)[C@]1(C)O` [AZITHROMYCIN], for which the figures for the EC50 (in test [8]; in the test on Streptococcus) were < 0.06 µM (active) and 0.066 µM (active), respectively. The AC50 with Escherichia coli is 29.3 µM (active).
